Assay [1] deals with A375 cells. As to the kind of experiment: Matrigel invasion assay, A375. Type of assay: cell-based. As for the experimental part: (§1) Matrigel (BD Biolabs) was diluted in 0.01 M Tris-HCL/0.7% NaCl, filter-sterilized and 0.1 ml was used to cover the membrane in BD BioCoat cell inserts (#353097, […], 24 well format, membrane growth area=0.33 cm^2). Cells 25,000/well were plated in […] of growth media containing 1% FCS atop the Matrigel. Growth media containing 10% FCS was added to the lower well and cells were incubated overnight at 37 C. The following day, excess cells from the top side of the membrane were removed with a cotton swab, and the membrane was rinsed in phosphate-buffered saline, fixed with 4% paraformaldehyde for 10 minutes, washed and stained in […] DAPI for 10 minutes to visualize the cells. The underside of the membrane was photographed with an inverted fluorescent microscope to count the number of cells that had migrated through the Matrigel layer (38).

The subject of assay [2] is PLX4032-resistant SK-MEL-5, SK-MEL-28 and WM3248 cells. As to the kind of experiment: Matrigel invasion, other PLX4032-resistant melanoma lines. Type of assay: cell-based. The note with it: PLX4032-resistant SK-MEL-5, SK-MEL-28, WM3248; FIGS. 5C, 5F. As for the experimental part:
as §1
(§2) A375, SK-MEL-5 and SK-MEL-28 cell lines were maintained in DMEM growth medium containing 10% FCS, 2 mM L-glutamine and 1 mM sodium pyruvate. […]
(§3) The impact of verteporfin on additional PLX4032 resistant melanoma cancer cell lines was examined. […] To determine whether YAP1 and TAZ can antagonize PLX4032 action, constitutively active YAP1 and TAZ were expressed in wild-type SK-MEL-28 cells and the impact on cell proliferation was monitored.

Assay [3] deals with A375-PLX-R cells. Description: Matrigel invasion assay, A375-PLX-R. More on the design: suppression of matrigel invasion at higher verteporfin concentrations: dose or concentration left out as unconfirmed. The assay is classed as cell-based. As for the experimental part: as §1
(§4) A375, SK-MEL-5 and SK-MEL-28 cell lines were maintained in DMEM growth medium containing 10% FCS, 2 mM L-glutamine and 1 mM sodium pyruvate. The WM3248 cells were maintained in MCDB153:L15 (4:1) growth medium containing 2% FCS, […] insulin and 1.68 mM CaCl2. To create PLX4032-resistant cells, A375, SK-MEL-5, SK-MEL-28 and WM3248 cells were treated with […] in monolayer culture in growth medium for several weeks. The surviving cells were then expanded and cultured in increasing doses of PLX4032 up to […]. The resulting PLX4032-resistant cells, designated PLX4032-resistant (e.g., A375-PLX-R) were routinely maintained in the presence of […] PLX4032.

The test system of assay [4] is A375-PLX-R spheroid cell-derived tumors. Description: Tumor xenograft assay, A375-PLX-R spheroid cell-derived tumors. Type of assay: in vivo, NSG mice. As for the experimental part:
Cells were grown for ten days as spheroids and a single cell suspension, prepared by trypsin digestion, was resuspended in phosphate buffered saline containing 30% Matrigel and 100 μl containing 0.1 million cells were injected subcutaneously at the two front flanks of NOD/scid/IL2 receptor gamma-knockout mice (NSG mice) using a 26.5 gauge needle. PLX4032 was dissolved in phosphate-buffered saline containing 10% DMSO and delivered at 20 mg/kg by oral gavage in […] three times per week (M/W/F). Verteporfin was dissolved in phosphate-buffered saline containing 10% DMSO and 0-100 mg/kg was delivered by intraperitoneal injection of […] three times per week (M/W/F). Five mice were used per group (two tumors per mouse) and treatment was initiated two days after tumor cell injection. Tumor growth was monitored by measuring tumor diameter and calculating tumor volume using the formula, volume=4/3π×(diameter/2)^3. Mice were euthanized by injection of 250 μl of a 2.5% stock of Avertin per mouse followed by cervical dislocation of the neck. Tumor samples were harvested to prepare extract for immunoblot and sections for immunostaining. These experiments were reviewed and approved by the University of Maryland-Baltimore Institutional Animal Care and Use Committee. The plotted values are mean±SEM and significance were determined using the students t-test.

Assay [5] has as its system A375-PLX-R cells. Description: Spheroid formation assay, A375-PLX-R. Type of assay: cell-based. As for the experimental part:
(§5) Cancer cells were maintained under attached conditions in growth media containing DMEM (Invitrogen, Frederick, Md.) supplemented with 4.5 mg/ml D-glucose, […] L-glutamine, 100 mg/ml sodium pyruvate, and 5% fetal calf serum. For spheroid culture, monolayer cultures were dissociated with 0.25% trypsin and the cells were collected by centrifugation, and resuspended in spheroid media, consisting of DMEM/F12 (1:1) (DMT-10-090-CV, Mediatech INC, Manassa, Va.) containing 2% B27 serum-free supplement (17504-044, Invitrogen, Frederick, Md.) 20 ng/ml EGF (E4269, Sigma, St. Louis), 0.4% bovine serum albumin (B4287, Sigma) and […] insulin (19278 Sigma, St. Louis, Mo.) and plated at 40,000 cells per 9.6 cm^2 well in six well ultra-low attachment Costar cluster dishes (4371, Corning, Tewksbury, Mass.). Parallel cultures were plated in spheroid media on conventional plastic dishes for growth as monolayer cultures.
as §4

In assay [6] the test system is A375 cells. As to the kind of experiment: Cell proliferation, monolayer A375 cells. The assay is classed as cell-based. The note with it: PLX4032 treatment, FIG. 1D. As for the experimental part:
as §4

Assay [7] deals with A375 cells. Description: Spheroid formation assay, A375. Type of assay: cell-based. As for the experimental part:
as §5

In assay [8] the test system is PLX4032-resistant SK-MEL-5, SK-MEL-28 and WM3248 cells. As to the kind of experiment: Spheroid formation, other PLX4032-resistant melanoma lines. The assay is classed as cell-based. The note with it: PLX4032-resistant SK-MEL-5, SK-MEL-28, WM3248; FIGS. 5B, 5E. As for the experimental part: as §5, §2, §3

Entries after “also recorded” stand apart in the source; their conditions may differ.

Take `CCCS(=O)(=O)Nc1ccc(F)c(C(=O)c2c[nH]c3ncc(-c4ccc(Cl)cc4)cc23)c1F` [PLX4032]: the matrigel invasion result in assay [1] (A375, PLX4032 treatment) is given as “not suppressed; also recorded: did not impact”; in assay [2], “did not reduce”; in assay [3] (A375-PLX-R, PLX4032 treatment), “not suppressed; also recorded: did not impact”. Also, the “ERK1/2-P level in tumors” value in assay [4] (PLX4032 20 mg/kg in the presence of verteporfin) is recorded as “reduced”. Further, the “tumor growth / tumor formation” value in assay [4] (PLX4032 20 mg/kg oral gavage three times per week, absence of verteporfin, 20 mg/kg) is “did not suppress”. The A375-PLX-R spheroid formation result is given as “does not suppress” in assay [5] (0-1 μM PLX4032, no verteporfin, FIG. 5A legend) and “did not suppress” in assay [5] (0-1 mM PLX4032, no verteporfin, FIG. 5A). Besides, the spheroid formation entry in assay [5] (A375-PLX-R cells, FIGS. 2A-2B) is recorded as “not”; in assay [7] (A375 cells, FIGS. 2A-2B) it was “suppressed”; in assay [8] it was “did not reduce”. Moreover, the A375 cell proliferation entry in assay [6] is listed as “reduces”.

In the case of verteporfin, the “suppression of matrigel invasion at higher verteporfin concentrations” value in assay [1] (A375 (FIG. 4D), above 0.5-1 mM) was “nearly complete”; in assay [3] (A375-PLX-R (FIG. 4E)), “nearly complete”. The IC50 in assay [1] (A375, FIG. 4D legend, read-out: verteporfin concentration giving 50% suppression of matrigel invasion) lay in the range of 500 to 1000 nM; in assay [3] (A375-PLX-R, FIG. 4E legend, read-out: verteporfin concentration giving 50% suppression of matrigel invasion) it was 500 to 1000 nM; in assay [5] (A375-PLX-R, FIG. 4B legend, read-out: verteporfin concentration suppressing spheroid formation by 50%), 100 to 250 nM; in assay [7] (A375, FIG. 4A legend, read-out: verteporfin concentration suppressing spheroid formation by 50%), 100 to 250 nM. Further, the matrigel invasion result in assay [2] was “reduced”. For the same molecule, the “YAP1, YAP1-P, TAZ and TEAD levels in tumors” value in assay [4] (10 mg/kg verteporfin/20 mg/kg PLX4032-treated tumors, FIG. 7C) was “reduction”. Also, in assay [4] (verteporfin 0-100 mg/kg intraperitoneal three times per week, FIGS. 7A-7B), the tumor size result was “dose-dependent reduction”. For the same molecule, the tumor formation result in assay [4] (verteporfin 10 mg/kg alone) is recorded as “does not suppress”. For the same molecule, in assay [4] (verteporfin 10 mg/kg with PLX4032 20 mg/kg), the “PLX4032-dependent suppression of tumor formation” value is “restores”. In addition, the “spheroid formation at higher verteporfin concentrations” value is “nearly completely inhibited” in assay [5] (A375-PLX-R, above 0.1-0.25 mM) and “nearly completely inhibited” in assay [7] (A375, above 0.1-0.25 mM). In addition, the “PLX4032 suppression of spheroid number on verteporfin co-treatment” value in assay [5] (co-treatment 0.1 μM verteporfin with 0-1 μM PLX4032, FIG. 5A legend) is listed as “restores”; in assay [5] (co-treatment 0.1 mM verteporfin with 0-1 mM PLX4032, FIG. 5A) it was “restored”. Also, the spheroid formation result in assay [8] is “reduced”.

Values taken from patent US11246856B2, “Methods of treating resistant cancers” (University of Maryland, Baltimore, priority 2017, dated 2022).
